Assays:
MAGL [1] = target: T1, MAGL (Mus musculus, UniProt O35678); assay: biochemical; conditions: mouse; in vitro competitive ABPP; read-out: Mouse (IC50 value, nM) MAGL
T1 sequence (O35678 1-303): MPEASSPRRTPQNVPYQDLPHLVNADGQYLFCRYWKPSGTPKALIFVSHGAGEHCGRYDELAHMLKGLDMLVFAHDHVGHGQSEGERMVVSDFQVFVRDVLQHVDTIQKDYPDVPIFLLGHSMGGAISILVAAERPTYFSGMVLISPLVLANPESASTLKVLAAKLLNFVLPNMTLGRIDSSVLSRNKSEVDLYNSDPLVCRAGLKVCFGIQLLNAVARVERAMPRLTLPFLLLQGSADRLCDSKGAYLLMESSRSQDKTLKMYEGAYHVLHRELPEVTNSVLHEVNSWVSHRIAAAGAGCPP

FAAH [2] = target: T2, FAAH (Mus musculus, UniProt O08914); assay: In vitro competitive activity-based protein profiling (Table 2, % inhibition at 1 μM); assay type: biochemical; conditions: read-out: % Inhibition at 1 μM FAAH
T2 sequence (O08914 1-579): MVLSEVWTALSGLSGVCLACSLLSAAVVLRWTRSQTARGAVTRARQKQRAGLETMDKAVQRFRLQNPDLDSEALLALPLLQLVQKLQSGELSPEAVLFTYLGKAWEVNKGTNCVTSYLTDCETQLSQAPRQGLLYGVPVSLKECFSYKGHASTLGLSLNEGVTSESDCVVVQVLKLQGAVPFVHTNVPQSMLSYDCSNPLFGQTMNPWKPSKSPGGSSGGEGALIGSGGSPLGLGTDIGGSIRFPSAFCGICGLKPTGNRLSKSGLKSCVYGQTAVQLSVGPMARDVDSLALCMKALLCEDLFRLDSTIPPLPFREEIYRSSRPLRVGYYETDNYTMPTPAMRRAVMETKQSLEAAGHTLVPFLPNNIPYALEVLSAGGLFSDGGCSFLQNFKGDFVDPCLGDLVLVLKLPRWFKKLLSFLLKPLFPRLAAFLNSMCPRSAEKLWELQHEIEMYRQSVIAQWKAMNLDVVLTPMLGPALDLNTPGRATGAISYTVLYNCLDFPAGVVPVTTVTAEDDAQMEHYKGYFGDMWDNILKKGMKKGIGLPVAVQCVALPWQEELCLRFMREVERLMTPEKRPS

ABHD6 [3] = target: T3, ABHD6 (Mus musculus, UniProt Q8R2Y0); assay: as above; assay type: biochemical; conditions: read-out: % Inhibition at 1 μM ABHD6
T3 sequence (Q8R2Y0 1-336): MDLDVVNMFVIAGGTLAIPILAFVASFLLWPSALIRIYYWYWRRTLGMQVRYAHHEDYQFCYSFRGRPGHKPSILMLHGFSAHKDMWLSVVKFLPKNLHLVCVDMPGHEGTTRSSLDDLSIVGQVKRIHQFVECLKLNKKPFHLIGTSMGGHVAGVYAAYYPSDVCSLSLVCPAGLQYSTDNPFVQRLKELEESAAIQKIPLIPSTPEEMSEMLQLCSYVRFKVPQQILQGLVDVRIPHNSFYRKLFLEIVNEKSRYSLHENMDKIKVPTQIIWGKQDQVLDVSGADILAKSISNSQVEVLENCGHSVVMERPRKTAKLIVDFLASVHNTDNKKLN

FAAH [4] = target: T2, FAAH; assay: biochemical; conditions: in vitro competitive ABPP
ABHD6 [5] = target: T3, ABHD6; assay: biochemical; conditions: in vitro competitive ABPP
MAGL [6] = target: T1, MAGL; assay: In vitro competitive activity-based protein profiling (Table 2, % inhibition at 1 μM); assay type: biochemical; conditions: read-out: % Inhibition at 1 μM MAGL
Procedure: After 30 min, FP—Rh (1.0 μL, 50 μM in DMSO) was added and the mixture was incubated for another 30 min at 37° C. Reactions were quenched with SDS loading buffer (50 μL-4×) and run on SDS-PAGE.
Cell lysates were diluted with mock proteomes for use in competitive ABPP experiments.

Row | SMILES | IC50 (MAGL [1]) [nM] | inhibition at 1 µM (FAAH [2]) [%] | inhibition at 1 µM (ABHD6 [3]) [%] | IC50 (FAAH [4]) [nM] | IC50 (ABHD6 [5]) [nM] | inhibition at 1 µM (MAGL [6]) [%]
1 | O=C(OC(C(F)(F)F)C(F)(F)F)N1CC2CN(Cc3ccc(C(F)F)cc3N3CCOCC3)CC2C1 (stereo not drawn) [Example 203, 1,1,1,3,3,3-hexafluoropropan-2-yl 5-(4-(difluoromethyl)-2-morpholinobenzyl)hexahydropyrrolo[3,4-c]pyrrole-2(1H)-carboxylate] | < 100 | < 25 | 25 to 75 | 1000 to 10000 | 1000 to 10000 | > 75
2 | Cc1cc(CN2CC3CN(C(=O)OC(C(F)(F)F)C(F)(F)F)CC3C2)n(C(C)C)n1 (stereo not drawn) [Example 59, 1,1,1,3,3,3-Hexafluoropropan-2-yl 5-[[3-methyl-1-(propan-2-yl)-1H-pyrazol-5-yl]methyl]-octahydropyrrolo[3,4-c]pyrrole-2-carboxylate] | 100 to 1000 | 25 to 75 | 25 to 75 | 1000 to 10000 | 1000 to 10000 | > 75
3 | O=C(OC(C(F)(F)F)C(F)(F)F)N1CC2CN(Cc3cc(CN4CCCCC4)ccc3OC(F)(F)F)CC2C1 (stereo not drawn) [Example 189, 1,1,1,3,3,3-hexafluoropropan-2-yl 5-(5-(piperidin-1-ylmethyl)-2-(trifluoromethoxy)benzyl)hexahydropyrrolo[3,4-c]pyrrole-2(1H)-carboxylate] | 100 to 1000 | < 25 | < 25 | 1000 to 10000 | 1000 to 10000 | > 75
4 | O=C(OC(C(F)(F)F)C(F)(F)F)N1CC2CN(Cc3ccc(Cl)cc3N3CCn4ccnc4C3)CC2C1 (stereo not drawn) [Example 33, 1,1,1,3,3,3-Hexafluoropropan-2-yl 5-[(4-chloro-2-[5H,6H,7H,8H-imidazo[1,2-a]pyrazin-7-yl]phenyl)methyl]-octahydropyrrolo[3,4-c]pyrrole-2-carboxylate] | < 100 | 25 to 75 | 25 to 75 | 1000 to 10000 | 1000 to 10000 | > 75
5 | CC(C)c1ccc(CN2CC3CN(C(=O)OC(C(F)(F)F)C(F)(F)F)CC3C2)c(N2CCOCC2)c1 (stereo not drawn) [Example 22, 1,1,1,3,3,3-Hexafluoropropan-2-yl 5-[[2-(morpholin-4-yl)-4-(propan-2-yl)phenyl]methyl]-octahydropyrrolo[3,4-c]pyrrole-2-carboxylate] | 100 to 1000 | < 25 | < 25 | 1000 to 10000 | 1000 to 10000 | > 75
6 | O=C(OC(C(F)(F)F)C(F)(F)F)N1CC2CN(Cc3ccc(C(F)(F)F)cc3N3CC4COCC4C3)CC2C1 (stereo not drawn) [Example 210, 1,1,1,3,3,3-hexafluoropropan-2-yl 5-(2-(tetrahydro-1H-furo[3,4-c]pyrrol-5(3H)-yl)-4-(trifluoromethyl)benzyl)hexahydropyrrolo[3,4-c]pyrrole-2(1H)-carboxylate] | < 100 | < 25 | < 25 | 1000 to 10000 | 1000 to 10000 | > 75
7 | CC(=O)N1CCN(c2cc(F)ccc2CN2CC3CN(C(=O)OC(C(F)(F)F)C(F)(F)F)CC3C2)CC1 (stereo not drawn) [Example 17, 1,1,1,3,3,3-Hexafluoropropan-2-yl 5-[[2-(4-acetylpiperazin-1-yl)-4-fluorophenyl]methyl]-octahydropyrrolo[3,4-c]pyrrole-2-carboxylate] | 100 to 1000 | 25 to 75 | < 25 | 1000 to 10000 | 1000 to 10000 | > 75
8 | Cc1cccc(CN2CC3CN(C(=O)OC(C(F)(F)F)C(F)(F)F)CC3C2)c1N1CCOCC1 (stereo not drawn) [Example 41, 1,1,1,3,3,3-Hexafluoropropan-2-yl 5-[[3-methyl-2-(morpholin-4-yl)phenyl]methyl]-octahydropyrrolo[3,4-c]pyrrole-2-carboxylate] | 100 to 1000 | < 25 | < 25 | 1000 to 10000 | 1000 to 10000 | > 75
9 | O=C(OC(C(F)(F)F)C(F)(F)F)N1CC2CN(Cc3ccc(Cl)cc3N3CCn4ncnc4C3)CC2C1 (stereo not drawn) [Example 34, 1,1,1,3,3,3-Hexafluoropropan-2-yl 5-(4-chloro-2-(5,6-dihydro-[1,2,4]triazolo[1,5-a]pyrazin-7(8H)-yl)benzyl)-hexahydropyrrolo[3,4-c]pyrrole-2(1H)-carboxylate] | < 100 | 25 to 75 | 25 to 75 | 1000 to 10000 | 100 to 1000 | > 75
10 | O=C(OC(C(F)(F)F)C(F)(F)F)N1CC2CN(Cc3cccc(N4CCOCC4)c3Cl)CC2C1 (stereo not drawn) [Example 49, 1,1,1,3,3,3-Hexafluoropropan-2-yl 5-[[2-chloro-3-(morpholin-4-yl)phenyl]methyl]-octahydropyrrolo[3,4-c]pyrrole-2-carboxylate] | < 100 | 25 to 75 | < 25 | 1000 to 10000 | 1000 to 10000 | > 75
11 | O=C(OC(C(F)(F)F)C(F)(F)F)N1CC2CN(Cc3ccc(N4CCOCC4)cc3C(F)(F)F)CC2C1 (stereo not drawn) [Example 10, 1,1,1,3,3,3-Hexafluoropropan-2-yl 5-[[4-(morpholin-4-yl)-2-(trifluoromethyl)phenyl]methyl]-octahydropyrrolo[3,4-c]pyrrole-2-carboxylate] | < 100 | 25 to 75 | < 25 | 100 to 1000 | 1000 to 10000 | > 75
12 | CC1COCCN1c1cc(F)ccc1CN1CC2CN(C(=O)OC(C(F)(F)F)C(F)(F)F)CC2C1 (stereo not drawn) [Example 16, 1,1,1,3,3,3-Hexafluoropropan-2-yl 5-[[4-fluoro-2-(3-methylmorpholin-4-yl)phenyl]methyl]-octahydropyrrolo[3,4-c]pyrrole-2-carboxylate] | < 100 | < 25 | < 25 | 1000 to 10000 | 1000 to 10000 | > 75
13 | O=C(OC(C(F)(F)F)C(F)(F)F)N1CC2CN(Cc3ccc(N4CCOCC4)cc3F)CC2C1 (stereo not drawn) [Example 1, 1,1,1,3,3,3-Hexafluoropropan-2-yl 5-(2-fluoro-4-morpholinobenzyl)hexahydropyrrolo[3,4-c]pyrrole-2(1H)-carboxylate] | < 100 | 25 to 75 | < 25 | 100 to 1000 | 1000 to 10000 | > 75
14 | O=C(ON1C(=O)CCC1=O)N1CC2CN(Cc3cccc(-c4ccccc4)c3)CC2C1 (stereo not drawn) [Example 88, 2,5-Dioxopyrrolidin-1-yl 5-[(3-phenylphenyl)methyl]-octahydropyrrolo[3,4-c]pyrrole-2-carboxylate] | < 100 | > 75 | 25 to 75 | 100 to 1000 | 1000 to 10000 | > 75
15 | O=C(OC(C(F)(F)F)C(F)(F)F)N1CC2CN(Cc3cc(CN4CCCC4)ccc3OC(F)(F)F)CC2C1 (stereo not drawn) [Example 190, 1,1,1,3,3,3-hexafluoropropan-2-yl 5-(5-(pyrrolidin-1-ylmethyl)-2-(trifluoromethoxy)benzyl)hexahydropyrrolo[3,4-c]pyrrole-2(1H)-carboxylate] | 100 to 1000 | < 25 | < 25 | 1000 to 10000 | 1000 to 10000 | > 75
